ChEMBL document CHEMBL3526109 (Drug Metab Dispos, 2011)

Experiments:
[1] = Drug level in cynomolgus monkey urine treated with [14C]brivanib alaninate at 10 mg/kg, po administered as single dose via gavage by mass spectrometry; format: ADME, organism-based, Macaca fascicularis; details: in vivo
Homo sapiens [2] = test: Drug uptake in human plasma treated with [14C]brivanib alaninate assessed as AUC (0 to 12 hrs) of total radio activity at 800 mg, po administered as single oral dose by HPLC analysis; format: ADME, organism-based; details: in vivo
Plasma [3] = test: Drug level in human plasma assessed as compound formation treated with [14C]brivanib alaninate at 800 mg, po administered as single dose via gavage measured after 4 hrs by HPLC analysis; format: ADME, organism-based; details: in vivo
Plasma [4] = test: Drug level in human plasma assessed as compound formation treated with [14C]brivanib alaninate at 800 mg, po administered as single dose via gavage measured after 8 hrs by HPLC analysis; format: ADME, organism-based; details: in vivo
Plasma [5] = test: Drug level in human plasma assessed as compound formation treated with [14C]brivanib alaninate at 800 mg, po administered as single dose via gavage measured after 12 hrs by HPLC analysis; format: ADME, organism-based; details: in vivo
Rattus norvegicus [6] = test: AUC (0 to 6 hrs) Sprague-Dawley rat plasma treated with [14C]brivanib alaninate at 100 mg/kg, po administered as single oral dose by HPLC analysis; format: ADME, organism-based; details: in vivo
Cynomolgus monkey [7] = test: AUC (0 to 4 hrs) cynomolgus monkey plasma treated with [14C]brivanib alaninate at 10 mg/kg, po administered as single oral dose by HPLC analysis; format: ADME, organism-based, Macaca fascicularis; details: in vivo
Homo sapiens [8] = test: AUC (0 to 12 hrs) human plasma treated with [14C]brivanib alaninate at 800 mg, po administered as single oral dose by HPLC analysis; format: ADME, organism-based; details: in vivo
[9] = Drug excretion in Sprague-Dawley rat urine treated with [14C]brivanib alaninate at 100 mg/kg, po administered as single dose via gavage by HPLC analysis; format: ADME, organism-based; details: in vivo
[10] = Drug excretion in Sprague-Dawley rat feces treated with [14C]brivanib alaninate at 100 mg/kg, po administered as single dose via gavage by HPLC analysis; format: ADME, organism-based; details: in vivo
[11] = Drug excretion in bile duct-cannulated rat bile treated with [14C]brivanib alaninate at 100 mg/kg, po administered as single dose via gavage by HPLC analysis; format: ADME, organism-based; details: in vivo
[12] = Drug excretion in cynomolgus monkey feces treated with [14C]brivanib alaninate at 10 mg/kg, po administered as single dose via gavage by HPLC analysis; format: ADME, organism-based, Macaca fascicularis; details: in vivo
[13] = Drug excretion in bile duct-cannulated cynomolgus monkey bile treated with [14C]brivanib alaninate at 10 mg/kg, po administered as single dose via gavage by HPLC analysis; format: ADME, organism-based, Macaca fascicularis; details: in vivo
[14] = Drug excretion in human urine treated with [14C]brivanib alaninate at 800 mg, po administered as single dose […] by HPLC analysis; format: ADME, organism-based; details: in vivo
[15] = Drug excretion in human feces treated with [14C]brivanib alaninate at 800 mg, po administered as single dose […] by HPLC analysis; format: ADME, organism-based; details: in vivo
[16] = biological target: Vascular endothelial growth factor receptor 2 (Homo sapiens, UniProt P35968); test: Inhibition of human recombinant VEGFR-2
[17] = biological target: Fibroblast growth factor receptor 1 (Homo sapiens, UniProt P11362); test: Inhibition of human recombinant FGFR-1
Plasma [18] = test: Drug level in Sprague-Dawley rat plasma assessed as compound formation treated with [14C]brivanib alaninate at 100 mg/kg, po administered as single dose via gavage measured after 1 hr by HPLC analysis; format: ADME, organism-based; details: in vivo
Plasma [19] = test: Drug level in Sprague-Dawley rat plasma assessed as compound formation treated with [14C]brivanib alaninate at 100 mg/kg, po administered as single dose via gavage measured after 2 hrs by HPLC analysis; format: ADME, organism-based; details: in vivo
Plasma [20] = test: Drug level in Sprague-Dawley rat plasma assessed as compound formation treated with [14C]brivanib alaninate at 100 mg/kg, po administered as single dose via gavage measured after 6 hrs by HPLC analysis; format: ADME, organism-based; details: in vivo
Plasma [21] = test: Drug level in cynomolgus monkey plasma assessed as compound formation treated with [14C]brivanib alaninate at 10 mg/kg, po administered as single dose via gavage measured after 1 hr by HPLC analysis; format: ADME, organism-based, Macaca fascicularis; details: in vivo
Plasma [22] = test: Drug level in cynomolgus monkey plasma assessed as compound formation treated with [14C]brivanib alaninate at 10 mg/kg, po administered as single dose via gavage measured after 2 hrs by HPLC analysis; format: ADME, organism-based, Macaca fascicularis; details: in vivo
Plasma [23] = test: Drug level in cynomolgus monkey plasma assessed as compound formation treated with [14C]brivanib alaninate at 10 mg/kg, po administered as single dose via gavage measured after 4 hrs by HPLC analysis; format: ADME, organism-based, Macaca fascicularis; details: in vivo
Plasma [24] = test: Drug level in cynomolgus monkey plasma assessed as compound formation treated with [14C]brivanib alaninate at 10 mg/kg, po administered as single dose via gavage measured after 6 hrs by HPLC analysis; format: ADME, organism-based, Macaca fascicularis; details: in vivo
Plasma [25] = test: Drug level in cynomolgus monkey plasma assessed as compound formation treated with [14C]brivanib alaninate at 10 mg/kg, po administered as single dose via gavage measured after 12 hrs by HPLC analysis; format: ADME, organism-based, Macaca fascicularis; details: in vivo
Plasma [26] = test: Drug level in human plasma assessed as compound formation treated with [14C]brivanib alaninate at 800 mg, po administered as single dose via gavage measured after 1 hr by HPLC analysis; format: ADME, organism-based; details: in vivo
Plasma [27] = test: Drug level in human plasma assessed as compound formation treated with [14C]brivanib alaninate at 800 mg, po administered as single dose via gavage measured after 2 hrs by HPLC analysis; format: ADME, organism-based; details: in vivo
Cynomolgus monkey [28] = test: Drug uptake in cynomolgus monkey plasma treated with [14C]brivanib alaninate assessed as AUC (0 to 4 hrs) of total radio activity at 10 mg/kg, po administered as single oral dose by HPLC analysis; format: ADME, organism-based, Macaca fascicularis; details: in vivo
Rattus norvegicus [29] = test: Drug uptake in Sprague-Dawley rat plasma treated with [14C]brivanib alaninate assessed as AUC (0 to 6 hrs) of total radio activity at 100 mg/kg, po administered as single oral dose by HPLC analysis; format: ADME, organism-based; details: in vivo
Liver microsome = test: Drug level in human liver microsomes treated with brivanib by LC-MS/MS analysis in presence of NADPH; format: ADME
Plasma [30] = test: Drug level in cynomolgus monkey plasma assessed as compound formation treated with [14C]brivanib alaninate at 10 mg/kg, po administered as single dose via gavage measured after 1 hr by mass spectrometry; format: ADME, organism-based, Macaca fascicularis; details: in vivo
Plasma [31] = test: Drug level in cynomolgus monkey plasma assessed as compound formation treated with [14C]brivanib alaninate at 10 mg/kg, po administered as single dose via gavage measured after 2 hrs by mass spectrometry; format: ADME, organism-based, Macaca fascicularis; details: in vivo
Plasma [32] = test: Drug level in cynomolgus monkey plasma assessed as compound formation treated with [14C]brivanib alaninate at 10 mg/kg, po administered as single dose via gavage measured after 4 hrs by mass spectrometry; format: ADME, organism-based, Macaca fascicularis; details: in vivo
Plasma [33] = test: Drug level in cynomolgus monkey plasma assessed as compound formation treated with [14C]brivanib alaninate at 10 mg/kg, po administered as single dose via gavage measured after 12 hrs by mass spectrometry; format: ADME, organism-based, Macaca fascicularis; details: in vivo
Plasma [34] = test: Drug level in human plasma assessed as compound formation treated with [14C]brivanib alaninate at 800 mg, po administered as single dose via gavage measured after 1 hr by mass spectrometry; format: ADME, organism-based; details: in vivo
Plasma [35] = test: Drug level in human plasma assessed as compound formation treated with [14C]brivanib alaninate at 800 mg, po administered as single dose via gavage measured after 2 hrs by mass spectrometry; format: ADME, organism-based; details: in vivo
Plasma [36] = test: Drug level in human plasma assessed as compound formation treated with [14C]brivanib alaninate at 800 mg, po administered as single dose via gavage measured after 4 hrs by mass spectrometry; format: ADME, organism-based; details: in vivo
Plasma [37] = test: Drug level in human plasma assessed as compound formation treated with [14C]brivanib alaninate at 800 mg, po administered as single dose via gavage measured after 8 hrs by mass spectrometry; format: ADME, organism-based; details: in vivo
Plasma [38] = test: Drug level in human plasma assessed as compound formation treated with [14C]brivanib alaninate at 800 mg, po administered as single dose via gavage measured after 12 hrs by mass spectrometry; format: ADME, organism-based; details: in vivo
[39] = Drug level in bile duct-cannulated rat bile treated with [14C]brivanib alaninate at 100 mg/kg, po administered as single dose via gavage by mass spectrometry; format: ADME, organism-based; details: in vivo
[40] = Drug level in bile duct-cannulated cynomolgus monkey bile treated with [14C]brivanib alaninate at 10 mg/kg, po administered as single dose via gavage by mass spectrometry; format: ADME, organism-based, Macaca fascicularis; details: in vivo
[41] = Drug excretion in cynomolgus monkey urine treated with [14C]brivanib alaninate at 10 mg/kg, po administered as single dose via gavage by HPLC analysis; format: ADME, organism-based, Macaca fascicularis; details: in vivo
Plasma [42] = test: Drug level in Sprague-Dawley rat plasma assessed as compound formation treated with [14C]brivanib alaninate at 100 mg/kg, po administered as single dose via gavage measured after 1 hr by mass spectrometry; format: ADME, organism-based; details: in vivo
Plasma [43] = test: Drug level in Sprague-Dawley rat plasma assessed as compound formation treated with [14C]brivanib alaninate at 100 mg/kg, po administered as single dose via gavage measured after 2 hrs by mass spectrometry; format: ADME, organism-based; details: in vivo
Plasma [44] = test: Drug level in Sprague-Dawley rat plasma assessed as compound formation treated with [14C]brivanib alaninate at 100 mg/kg, po administered as single dose via gavage measured after 6 hrs by mass spectrometry; format: ADME, organism-based; details: in vivo
Plasma [45] = test: Drug level in cynomolgus monkey plasma assessed as compound formation treated with [14C]brivanib alaninate at 10 mg/kg, po administered as single dose via gavage measured after 6 hrs by mass spectrometry; format: ADME, organism-based, Macaca fascicularis; details: in vivo

Sequence of Vascular endothelial growth factor receptor 2 (P35968 whole entry): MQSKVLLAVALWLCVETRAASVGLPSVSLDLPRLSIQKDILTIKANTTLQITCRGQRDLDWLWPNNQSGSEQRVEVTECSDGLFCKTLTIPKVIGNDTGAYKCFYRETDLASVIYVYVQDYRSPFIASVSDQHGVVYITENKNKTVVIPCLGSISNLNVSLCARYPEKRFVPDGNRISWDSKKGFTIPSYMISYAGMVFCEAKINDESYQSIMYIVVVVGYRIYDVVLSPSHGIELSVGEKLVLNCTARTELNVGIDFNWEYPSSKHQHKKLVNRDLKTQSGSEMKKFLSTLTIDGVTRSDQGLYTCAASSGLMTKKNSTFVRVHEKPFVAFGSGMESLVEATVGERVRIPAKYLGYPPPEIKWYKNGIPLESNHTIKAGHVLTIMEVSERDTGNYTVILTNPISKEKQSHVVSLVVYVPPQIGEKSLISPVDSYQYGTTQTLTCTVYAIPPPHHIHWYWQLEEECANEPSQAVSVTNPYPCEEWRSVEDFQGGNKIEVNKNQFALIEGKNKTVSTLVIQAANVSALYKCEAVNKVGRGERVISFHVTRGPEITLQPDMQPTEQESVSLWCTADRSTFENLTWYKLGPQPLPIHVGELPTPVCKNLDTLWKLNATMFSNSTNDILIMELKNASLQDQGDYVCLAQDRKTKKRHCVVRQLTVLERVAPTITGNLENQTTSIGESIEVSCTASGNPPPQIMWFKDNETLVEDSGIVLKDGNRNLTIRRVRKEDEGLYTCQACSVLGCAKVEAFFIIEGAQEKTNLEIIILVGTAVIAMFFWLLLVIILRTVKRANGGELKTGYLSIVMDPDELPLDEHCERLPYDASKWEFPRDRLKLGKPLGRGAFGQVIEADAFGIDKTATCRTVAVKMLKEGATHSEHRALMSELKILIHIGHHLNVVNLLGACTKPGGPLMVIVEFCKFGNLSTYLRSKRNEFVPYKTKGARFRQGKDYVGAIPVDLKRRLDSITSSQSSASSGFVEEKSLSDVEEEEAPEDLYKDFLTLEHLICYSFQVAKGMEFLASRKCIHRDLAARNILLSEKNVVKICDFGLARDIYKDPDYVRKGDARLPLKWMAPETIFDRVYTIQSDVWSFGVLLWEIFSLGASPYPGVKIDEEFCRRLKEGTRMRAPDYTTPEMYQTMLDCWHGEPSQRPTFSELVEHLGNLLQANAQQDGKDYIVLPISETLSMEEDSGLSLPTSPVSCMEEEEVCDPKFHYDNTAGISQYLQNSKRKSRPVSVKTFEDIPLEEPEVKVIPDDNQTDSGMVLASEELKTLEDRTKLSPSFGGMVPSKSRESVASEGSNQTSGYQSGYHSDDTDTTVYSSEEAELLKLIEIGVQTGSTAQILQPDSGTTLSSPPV
Sequence of Fibroblast growth factor receptor 1 (P11362 whole entry): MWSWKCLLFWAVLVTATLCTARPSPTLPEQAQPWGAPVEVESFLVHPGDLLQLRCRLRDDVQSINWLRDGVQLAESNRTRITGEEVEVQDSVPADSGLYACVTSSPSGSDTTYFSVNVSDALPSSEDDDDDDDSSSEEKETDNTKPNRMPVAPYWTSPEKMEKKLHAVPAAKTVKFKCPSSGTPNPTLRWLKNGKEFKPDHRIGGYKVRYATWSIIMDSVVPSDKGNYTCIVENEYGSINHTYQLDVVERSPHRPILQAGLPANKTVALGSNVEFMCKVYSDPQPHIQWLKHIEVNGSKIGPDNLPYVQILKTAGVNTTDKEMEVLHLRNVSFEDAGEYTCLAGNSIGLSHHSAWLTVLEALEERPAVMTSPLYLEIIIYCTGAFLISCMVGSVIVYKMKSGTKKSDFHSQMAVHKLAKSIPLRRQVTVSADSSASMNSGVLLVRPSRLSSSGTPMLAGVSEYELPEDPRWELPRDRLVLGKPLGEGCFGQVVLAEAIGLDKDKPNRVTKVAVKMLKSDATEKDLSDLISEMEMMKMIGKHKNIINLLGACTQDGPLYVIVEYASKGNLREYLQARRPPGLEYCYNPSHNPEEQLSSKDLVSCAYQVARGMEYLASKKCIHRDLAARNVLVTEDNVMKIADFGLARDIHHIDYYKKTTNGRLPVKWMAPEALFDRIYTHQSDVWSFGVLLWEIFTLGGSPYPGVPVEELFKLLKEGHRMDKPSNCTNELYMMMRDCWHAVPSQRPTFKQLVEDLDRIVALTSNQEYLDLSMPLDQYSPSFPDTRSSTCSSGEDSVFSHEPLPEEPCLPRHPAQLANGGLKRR

| SMILES | Compound recovery (Plasma [3]) | Compound recovery (Plasma [4]) | Compound recovery (Plasma [5]) | Compound recovery [9] | Compound recovery [10] | Compound recovery [12] | Compound recovery [14] | Compound recovery [15] | IC50 [16] [µM] | IC50 [17] [µM] | Compound recovery (Plasma [18]) [%] | Compound recovery (Plasma [19]) [%] | Compound recovery (Plasma [20]) [%] | Compound recovery (Plasma [24]) | Compound recovery (Plasma [25]) | Compound recovery (Plasma [26]) | Compound recovery (Plasma [27]) | Compound recovery (Plasma [30]) | Compound recovery (Plasma [31]) | Compound recovery (Plasma [32]) | also measured |
| --- | --- | --- | --- | --- | --- | --- | --- | --- | --- | --- | --- | --- | --- | --- | --- | --- | --- | --- | --- | --- | --- |
| Cc1cc2c(F)c(Oc3ncnn4cc(OC[C@@H](C)OS(=O)(=O)O)c(C)c34)ccc2[nH]1 | 3.6% | 9.8% | 10.8% | 0.8% | 3.5% | 35.2% | metabolite_not_detected | 26.2% | 0.028 | 0.026 | 0.5 | 1.3 | 1.5 | metabolite_not_detected | metabolite_not_detected | metabolite_not_detected | 2.3% | – | – | – | Compound recovery [1]: metabolite_detected; AUC metabolite/AUC radiolabel (Homo sapiens [2]): 5.5%; AUC (Rattus norvegicus [6]): 1628.2 ugequiv/l.hr; AUC (Cynomolgus monkey [7]): 755.8 ugequiv/l.hr; AUC (Homo sapiens [8]): 3611.4 ugequiv/l.hr; Compound recovery [11]: 2.1%; Compound recovery [13]: 15.2%; Compound recovery (Plasma [21]): 1.9%; Compound recovery (Plasma [22]): 1%; Compound recovery (Plasma [23]): 1.3%; AUC metabolite/AUC radiolabel (Cynomolgus monkey [28]): 1.1%; AUC metabolite/AUC radiolabel (Rattus norvegicus [29]): 1.2% |
| Cc1c(OC[C@@H](C)O)cn2ncnc(Oc3ccc4[nH]c(CO)cc4c3F)c12 | metabolite_not_detected | metabolite_not_detected | metabolite_not_detected | – | – | – | – | – | 0.078 | 0.76 | 1.5 | 1.2 | 1.1 | metabolite_not_detected | metabolite_not_detected | metabolite_not_detected | metabolite_not_detected | metabolite_detected | metabolite_detected | metabolite_detected | Compound recovery (Liver microsome): metabolite_detected |
| CC(=O)COc1cn2ncnc(Oc3ccc4[nH]c(C)cc4c3F)c2c1C | – | – | – | metabolite_not_detected | metabolite_not_detected | metabolite_not_detected | metabolite_not_detected | metabolite_not_detected | – | – | – | – | – | – | – | – | – | metabolite_detected | metabolite_detected | metabolite_detected | Compound recovery (Plasma [33]): metabolite_detected; Compound recovery (Plasma [34]): metabolite_detected; Compound recovery (Plasma [35]): metabolite_detected; Compound recovery (Plasma [36]): metabolite_detected; Compound recovery (Plasma [37]): metabolite_detected; Compound recovery (Plasma [38]): metabolite_detected; Compound recovery [39]: metabolite_detected; Compound recovery [40]: metabolite_detected; Compound recovery [41]: metabolite_not_detected; Compound recovery (Plasma [42]): metabolite_detected; Compound recovery (Plasma [43]): metabolite_detected; Compound recovery (Plasma [44]): metabolite_detected; Compound recovery (Plasma [45]): metabolite_detected |
